Test results: patent publication US20240018166A1, “SULFONYL UREA NLRP3 INFLAMMASOME INHIBITORS” (Venatorx Pharmaceuticals, Inc., priority 2020, published 2024)

Experiments:
Format in all cases: cell-based
[1] = system: IL-1β; assay: IL-1β inhibition assay (ELISA/HTRF of culture supernatants); conditions: Homo sapiens, PMA-differentiated THP-1 cells, tested 10 μM to 0.003 μM
Procedure: Human monocyte-like THP-1 cells were grown in RPMI media supplemented with 10% FBS (growth media) at 37° C., 5% CO2. Cell cultures were passaged every three days and maintained at a density of 5×10^5 to 1×10^6 cells per mL.
Compounds were prepared as 10 mM stock solutions in 100% DMSO. […] Each 200× dilution was then diluted 20-fold in growth media (step down dilution) to yield a 10× final assay concentration range. All compounds were tested over a final assay concentration range of 10 μM to 0.003 μM.
The level of IL-10 in supernatants from PMA-differentiated THP-1 cells was determined by ELISA using either the R&D Systems Human IL-1 beta/IL-1F2 Quantikine ELISA or the cisbio HTRF human IL 1 beta kit. Manufacturer's protocols were followed without deviation.
Background values were subtracted and resulting values were converted to percentage of vehicle-treated controls. Data was analyzed via GraphPad Prism 7.0 using a non-linear regression (variable slope (four-parameter)) equation.
Table 2 provides IL-10 ELISA EC50 values for example compounds. A indicates EC50>10 μM; B indicates EC50 between 1 and 10 μM (inclusive); C indicates EC50<1 μM.

[2] = MTT cell viability assay, HepG2 cells; conditions: human, read-out: HepG2 Cytotoxicity CC50
Procedure: (§1) In order to assess the cytotoxicity of the compounds, an MTT cell viability assay was performed in either unstimulated THP-1 or HepG2 cells as follows. 5×10^4 THP-1 or 5×10^3 HepG2 cells were seeded into each well of a 96-well plate in 90 μL of media. Compounds were added to cells as described for the IL-10 assay and returned to the incubator for an additional 72 hours. Next, 25 μL of MTT solution (5 mg/mL in sterile PBS) was added to each well. Plates were incubated for 3 hours at 37° C., 5% CO2. Next, for THP-1 cells, 100 μl of MTT solubilization solution (40% Dimethylformamide, 2% glacial acetic acid, 16% sodium dodecyl sulfate) was then added to each well and plates were incubated at room temperature in the dark overnight. For HepG2 cells, media was aspirated, 50 μL of DMSO was added and plates were mixed briefly with an orbital plate shaker. Absorbance at 570 nm was measured using a Perkin-Elmer EnVision plate reader.
Absorbance values were converted to percentage of vehicle-treated controls. Data was then analyzed using a non-linear regression (variable slope (four-parameter)) equation in GraphPad Prism 7.0. […]

[3] = MTT cell viability assay, THP-1 cells; conditions: human, unstimulated THP-1 cells, read-out: THP-1 Cytotoxicity CC50
Procedure: as §1
Absorbance values were converted to percentage of vehicle-treated controls. Data was then analyzed using a non-linear regression (variable slope (four-parameter)) equation in GraphPad Prism 7.0.
Table 2 provides THP-1 cytotoxicity assay CC50 values for example compounds. A indicates CC50>10 μM; B indicates CC50 between 1 and 10 μM (inclusive); C indicates CC50<1 μM. NT, not tested.

EC50 [1] [µM] | Compound | CC50 at 72 h [2] [µM] | CC50 at 72 h [3] [µM]
< 1 | CC1(C)CCc2c1nc1c(c2NC(=O)NS(=O)(=O)c2ccn(CCCB(O)O)n2)CCC1 [Example 67, (3-(3-(N-((3,3-dimethyl-1,2,3,5,6,7-hexahydrodicyclopenta[b,e]pyridin-8-yl)carbamoyl)sulfamoyl)-1H-pyrazol-1-yl)propyl)boronic acid] | > 10 | 
1 to 10 | O=C(Nc1c2c(cc3c1CCC3)CCC2)NS(=O)(=O)C1CCN(CCCB(O)O)CC1 [Example 72, (3-(4-(N-((1,2,3,5,6,7-hexahydro-s-indacen-4-yl)carbamoyl)sulfamoyl)piperidin-1-yl)propyl)boronic acid] | > 10 | 
< 1 | CC(CB1OC(C)(C)C(C)(C)O1)Cn1ccc(S(=O)(=O)NC(=O)Nc2c3c(cc4c2CCC4)CCC3)n1 (stereo not drawn) [Example 64, N-((1,2,3,5,6,7-hexahydro-s-indacen-4-yl)carbamoyl)-1-(2-methyl-3-(4,4,5,5-tetramethyl-1,3,2-dioxaborolan-2-yl)propyl)-1H-pyrazole-3-sulfonamide] | > 10 | 
< 1 | O=C(Nc1c2c(cc3c1CCC3)CCC2)NS(=O)(=O)c1ccn(CCCB(O)O)n1 [Example 63, (3-(3-(N-((1,2,3,5,6,7-hexahydro-s-indacen-4-yl)carbamoyl)sulfamoyl)-1H-pyrazol-1-yl)propyl)boronic acid] | > 10 | 
< 1 | COc1cc(-c2ccc3c(c2NC(=O)NS(=O)(=O)c2ccn(CCCB(O)O)n2)CCC3)ccn1 [Example 69, (3-(3-(N-((5-(2-methoxypyridin-4-yl)-2,3-dihydro-1H-inden-4-yl)carbamoyl)sulfamoyl)-1H-pyrazol-1-yl)propyl)boronic acid] | > 10 | 
1 to 10 | CC1(C)OB(CCCC2(S(=O)(=O)NC(=O)Nc3c4c(cc5c3CCC5)CCC4)CC2)OC1(C)C [Example 70, N-((1,2,3,5,6,7-hexahydro-s-indacen-4-yl)carbamoyl)-1-(3-(4,4,5,5-tetramethyl-1,3,2-dioxaborolan-2-yl)propyl)cyclopropane-1-sulfonamide] | > 10 | 
< 1 | CC(CB(O)O)Cn1ccc(S(=O)(=O)NC(=O)Nc2c3c(cc4c2CCC4)CCC3)n1 (stereo not drawn) [Example 65, (3-(3-(N-((1,2,3,5,6,7-hexahydro-s-indacen-4-yl)carbamoyl)sulfamoyl)-1H-pyrazol-1-yl)-2-methylpropyl)boronic acid] | > 10 | 
< 1 | CC(C)c1cc(C#N)c(F)c(C(C)C)c1NC(=O)NS(=O)(=O)c1ccn(CCCB(O)O)n1 [Example 68, (3-(3-(N-((4-cyano-3-fluoro-2,6-diisopropylphenyl)carbamoyl)sulfamoyl)-1H-pyrazol-1-yl)propyl)boronic acid] | > 10 | 
< 1 | C[N+]12CC(=O)O[B-]1(c1cccc(S(=O)(=O)NC(=O)Nc3c4c(cc5c3CCC5)CCC4)c1)OC(=O)C2 (stereo not drawn) [Example 26, N-((1,2,3,5,6,7-hexahydro-s-indacen-4-yl)carbamoyl)-3-(4-methyl-2,6-dioxotetrahydro-2H-414,814-[1,3,2]oxazaborolo[2,3-b][1,3,2]oxazaborol-8-yl)benzenesulfonamide] |  | > 10
< 1 | O=C(Nc1c2c(cc3c1CCC3)CCC2)NS(=O)(=O)c1ccc2c(c1)COB2O [Example 29, N-((1,2,3,5,6,7-hexahydro-s-indacen-4-yl)carbamoyl)-1-hydroxy-1,3-dihydrobenzo[c][1,2]oxaborole-5-sulfonamide] |  | > 10
1 to 10 | CC(C)c1cccc(C(C)C)c1NC(=O)NS(=O)(=O)c1ccc(B(O)O)s1 [Example 5, (5-(N-((2,6-diisopropylphenyl)carbamoyl)sulfamoyl)thiophen-2-yl)boronic acid] |  | > 10
1 to 10 | O=C(Nc1c2c(cc3c1CCC3)CCC2)NS(=O)(=O)c1ccc(CCCB(O)O)c(O)c1 [Example 40, (3-(4-(N-((1,2,3,5,6,7-hexahydro-s-indacen-4-yl)carbamoyl)sulfamoyl)-2-hydroxyphenyl)propyl)boronic acid] |  | > 10
